Experimental data reported in patent US20100298141A1, “SUBSTITUTED PYRIDINE N-OXIDE HERBICIDES” (E. I. DU PONT DE NEMOURS AND COMPANY, priority 2007, published 2010).

Assays:
Test in all cases: Test F preemergence test
bermudagrass = format: in vivo, Cynodon dactylon; settings: scale 0 to 100
Description: (§1) Seeds of plant species selected from bermudagrass (Cynodon dactylon), Surinam grass (Brachiaria decumbens), large crabgrass (Digitaria sanguinalis), green foxtail (Setaria viridis), goosegrass (Eleusine indica), johnsongrass (Sorghum halepense), kochia (Kochia scoparia), pitted morningglory (Ipomoea lacunosa), purple nutsedge (Cyperus rotundus), common ragweed (Ambrosia elation), mustard (Brassica nigra), guineagrass (Panicum maximum), […] (Paspalum dilatatum), barnyardgrass (Echinochloa crus-galli), southern sandbur (Cenchrus echinatus), common sowthistle (Sonchus oleraceous), prickly […] spinosa), Italian ryegrass (Lolium multiflorum), common purslane (Portulaca oleracea), broadleaf signalgrass (Brachiaria platyphylla), common groundsel (Senecio vulgaris), common chickweed (Stellaria media), Virginia dayflower (Commelina virginica), annual bluegrass (Poa annua), naked crabgrass (Digitaria nuda), […] cochinchinensis), quackgrass (Elytrigia repens), Canada horseweed (Conyza canadensis), field bindweed (Convolvulus arvensis), […] (Bidens bipinnata), common mallow (Malva sylvestris), Russian thistle (Salsola kali), and sugarcane (Saccharum officinarum) were planted and treated preemergence with test chemicals formulated in a non-phytotoxic solvent mixture which included a surfactant. At a different time, sugarcane was treated with postemergence applications of some of the test chemicals formulated in the same manner. Plants were approximately 3- to 4-leaf stage for the postemergence treatments. Treated plants and controls were maintained in a greenhouse for 14 to 21 days, after which time all species were compared to controls and visually evaluated. […] A dash (-) response means no test result.

kochia = format: in vivo, Kochia scoparia; settings: scale 0 to 100
Description: as §1

purple nutsedge = format: in vivo, Cyperus rotundus; settings: scale 0 to 100
Description: as §1

mustard = format: in vivo, Brassica nigra; settings: scale 0 to 100
Description: as §1

guineagrass = format: in vivo, Panicum maximum; settings: scale 0 to 100
Description: as §1

dallisgrass = format: in vivo, Paspalum dilatatum; settings: scale 0 to 100
Description: as §1

barnyardgrass = format: in vivo, Echinochloa crus-galli
Description: as §1

prickly sida = format: in vivo, Sida spinosa; settings: scale 0 to 100
Description: as §1

common purslane = format: in vivo, Portulaca oleracea; settings: scale 0 to 100
Description: as §1

broadleaf signalgrass = format: in vivo, Brachiaria platyphylla; settings: scale 0 to 100
Description: as §1

common groundsel = format: in vivo, Senecio vulgaris; settings: scale 0 to 100
Description: as §1

Virginia dayflower = format: in vivo, Commelina virginica; settings: scale 0 to 100
Description: as §1

annual bluegrass = format: in vivo, Poa annua; settings: scale 0 to 100
Description: as §1

naked crabgrass = format: in vivo, Digitaria nuda; settings: scale 0 to 100
Description: as §1

quackgrass = format: in vivo, Elytrigia repens; settings: scale 0 to 100
Description: as §1

## Cn1nc(C(F)(F)C(F)(F)F)c(C[S+]([O-])c2cccc[n+]2[O-])c1OCC(F)(F)F (centres unmarked) [Compound 79]
bermudagrass; 16 g ai/ha, preemergence
  Plant response rating, Bermudagrass: 10
bermudagrass; 62 g ai/ha, Preemergence
  Bermudagrass plant response rating: 100
bermudagrass; 125 g ai/ha, preemergence
  Bermudagrass plant response rating: 100
bermudagrass; Preemergence, 31 g ai/ha
  Plant response rating, Bermudagrass: 65
kochia; 16 g ai/ha, preemergence
  Plant response rating, Kochia: 50
kochia; 62 g ai/ha, Preemergence
  Kochia plant response rating: 100
kochia; 125 g ai/ha, preemergence
  Kochia plant response rating: 100
kochia; Preemergence, 31 g ai/ha
  Plant response rating, Kochia: 100
Purple nutsedge; 16 g ai/ha, preemergence
  Plant response rating, Purple Nutsedge: 0
Purple nutsedge; 62 g ai/ha, Preemergence
  Purple Nutsedge plant response rating: 0
Purple nutsedge; 125 g ai/ha, preemergence
  Purple Nutsedge plant response rating: 60
Purple nutsedge; Preemergence, 31 g ai/ha
  Plant response rating, Purple Nutsedge: 0
mustard; 16 g ai/ha, preemergence
  Plant response rating, Black Mustard: 100
mustard; 62 g ai/ha, Preemergence
  Black Mustard plant response rating: 100
mustard; 125 g ai/ha, preemergence
  Black Mustard plant response rating: 100
mustard; Preemergence, 31 g ai/ha
  Plant response rating, Black Mustard: 100
guineagrass; 16 g ai/ha, preemergence
  Plant response rating, Guineagrass: 0
guineagrass; 62 g ai/ha, Preemergence
  Guineagrass plant response rating: 100
guineagrass; 125 g ai/ha, preemergence
  Guineagrass plant response rating: 100
guineagrass; Preemergence, 31 g ai/ha
  Plant response rating, Guineagrass: 95
dallisgrass; 16 g ai/ha, preemergence
  Plant response rating, Dallisgrass: 0
dallisgrass; 62 g ai/ha, Preemergence
  Dallisgrass plant response rating: 90
dallisgrass; 125 g ai/ha, preemergence
  Dallisgrass plant response rating: 100
dallisgrass; Preemergence, 31 g ai/ha
  Plant response rating, Dallisgrass: 40
barnyardgrass; 16 g ai/ha, preemergence, scale 0 to 100 (0 no effect, 100 complete control)
  Plant response rating, Barnyardgrass: 20
barnyardgrass; 62 g ai/ha, Preemergence, scale 0 to 100
  Barnyardgrass plant response rating: 100
barnyardgrass; 125 g ai/ha, preemergence, scale 0 to 100
  Barnyardgrass plant response rating: 100
barnyardgrass; Preemergence, 31 g ai/ha, scale 0 to 100
  Plant response rating, Barnyardgrass: 80
Prickly sida; 16 g ai/ha, preemergence
  Plant response rating, Prickly Sida: 0
Prickly sida; 62 g ai/ha, Preemergence
  Prickly Sida plant response rating: 100
Prickly sida; 125 g ai/ha, preemergence
  Prickly Sida plant response rating: 100
Prickly sida; Preemergence, 31 g ai/ha
  Plant response rating, Prickly Sida: 20
Common purslane; 16 g ai/ha, preemergence
  Plant response rating, Purslane: 30
Common purslane; 62 g ai/ha, Preemergence
  Purslane plant response rating: 60
Common purslane; 125 g ai/ha, preemergence
  Purslane plant response rating: 100
Common purslane; Preemergence, 31 g ai/ha
  Plant response rating, Purslane: 40
Broadleaf signalgrass; 16 g ai/ha, preemergence
  Plant response rating, Signalgrass: 0
Broadleaf signalgrass; 125 g ai/ha, preemergence
  Signalgrass plant response rating: 100
Broadleaf signalgrass; Preemergence, 62 g ai/ha
  Plant response rating, Signalgrass: 30
Broadleaf signalgrass; Preemergence, 31 g ai/ha
  Plant response rating, Signalgrass: 0
Common groundsel; 16 g ai/ha, preemergence
  Plant response rating, Groundsel: 95
Common groundsel; 62 g ai/ha, Preemergence
  Groundsel plant response rating: 95
Common groundsel; 125 g ai/ha, preemergence
  Groundsel plant response rating: 100
Common groundsel; Preemergence, 31 g ai/ha
  Plant response rating, Groundsel: 95
Virginia dayflower; 62 g ai/ha, Preemergence
  Dayflower plant response rating: 50
Virginia dayflower; 125 g ai/ha, preemergence
  Dayflower plant response rating: 100
Virginia dayflower; Preemergence, 31 g ai/ha
  Plant response rating, Dayflower: 20
Annual bluegrass; 16 g ai/ha, preemergence
  Plant response rating, Bluegrass: 0
Annual bluegrass; 62 g ai/ha, Preemergence
  Bluegrass plant response rating: 90
Annual bluegrass; 125 g ai/ha, preemergence
  Bluegrass plant response rating: 100
Annual bluegrass; Preemergence, 31 g ai/ha
  Plant response rating, Bluegrass: 0
Naked crabgrass; 16 g ai/ha, preemergence
  Plant response rating, Crabgrass, Naked: 0
Naked crabgrass; 62 g ai/ha, Preemergence
  Crabgrass, Naked plant response rating: 100
Naked crabgrass; 125 g ai/ha, preemergence
  Crabgrass, Naked plant response rating: 100
Naked crabgrass; Preemergence, 31 g ai/ha
  Plant response rating, Crabgrass, Naked: 40
quackgrass; 16 g ai/ha, preemergence
  Plant response rating, Quackgrass: 0
quackgrass; 62 g ai/ha, Preemergence
  Quackgrass plant response rating: 80
quackgrass; 125 g ai/ha, preemergence
  Quackgrass plant response rating: 95
quackgrass; Preemergence, 31 g ai/ha
  Plant response rating, Quackgrass: 35
